Measured values published in patent US7763582B2 (University of Medicine and Dentistry Of New Jersey, priority 2006, dated 2010).

Columns and labels:
fractured femora [1] = test: Mechanical (torsional) testing of fractured femora, BB Wistar rats (Example 1); assay type: in vivo; conditions: 4 weeks
From the text: (§1) A closed mid-diaphyseal fracture was created in the right femur using the following modification of the methods described in Bonnarens, F., and Einhorn, T. A., “Production of a standard closed fracture in laboratory animal bone,” J. Orthop. Res., vol. 2, pages 97-101 (1984). Once a medial, parapatellar incision was made, the patella was dislocated laterally and the interchondylar notch of the distal femur was exposed. An entry hole was made with an 18 gauge needle and the femur was reamed. A 16 gauge teflon cannula was then inserted into the intramedullary canal to stabilize the fracture while a closed midshaft fracture was created unilaterally with the use of a three-point bending, Einhorn fracture machine. Once the fracture was created, the cannula was removed and replaced with a 1.2 mm hollow rod in the Sprague-Dawley rats and a 1 mm Kirschner wire in the BB Wistar rat. […] The animals were allowed to ambulate freely immediately post-fracture.
(§2) Fractured and contralateral femora were resected at 4 weeks and cleaned of soft tissue. Femora were cleaned of soft tissue and the intramedullary rod was removed. Samples were wrapped in saline (0.9% NaCl) soaked gauze and stored at −20° C. Prior to testing, all femora were removed from the freezer and allowed to thaw to room temperature for three to four hours. The proximal and distal ends of the fractured and contralateral femora were embedded in Wood's metal. Torsional testing was conducted using a servohydraulics machine (MTS Systems Corp., Eden Prairie, Minn.) with a 20 Nm reaction torque cell (Interface, Scottsdale, Ariz.) and tested to failure at a rate of 2.0 deg/sec.
(§3) The peak torque (T), torsional rigidity (TR), […] (G) and the maximum shear stress ( ) were determined through standard equations modeling each femur as a hollow ellipse. In order to compare the biomechanical parameters between different groups, the data was normalized by dividing each fractured femur value by its corresponding intact, contralateral femur value.

fractured femora [2] = test: Qualitative histology of early fracture callus at day 4; assay type: in vivo, BB Wistar rats
From the text: as §1
The fractured femora were resected at day 4, decalcified, embedded and sectioned using standard histological techniques. To identify cartilage formation, sections were stained with Accustain™ Trichrome Staining kit (Masson, Sigma Diagnostics, St. Louis, Mo.) for histologic observation. The staining procedure consisted of fixing the sections in Accustain™ Bouins solution (Sigma Diagnostics, St. Louis, Mo.) overnight. […]

fractured femora [3] = test: Mechanical (torsional) testing of fractured femora, Sprague-Dawley rats; assay type: in vivo; conditions: 4 weeks
From the text: as §1, §2, §3

[4] = fractured femora, versus untreated, FIG. 4
[5] = normalized to intact contralateral femora
[6] = fractured femora, versus untreated, FIG. 3

ultralente insulin was tested, and the maximum shear stress (fractured femora [1]; [4]) was “significantly increased”, the sheer modulus (fractured femora [1]; [4]) was “trending towards significance” and the torque to failure (fractured femora [1]; [4]) was “significantly increased”. The torsional rigidity (fractured femora [1]; [4]) was “trending towards significance”, the “mechanical properties of the fractured femora” value (fractured femora [1]; versus untreated group, FIG. 4) was “improved” and the percent sheer modulus (fractured femora [1]; [5]) was “trending towards significance”. For the same substance, the percent torsional rigidity (fractured femora [1]; [5]) was “trending towards significance”, the “osteoid matrix in callus” value (fractured femora [2]; not present in untreated group) was “present” and the “chondrocytes in fracture callus (histology)” value (fractured femora [2]; untreated group showed only proliferating chondrocytes, FIG. 2) was “presence of proliferating and hypertrophic chondrocytes”. The maximum shear stress (fractured femora [3]; [6]) was “significantly increased”, the sheer modulus (fractured femora [3]; [6]) was “significantly increased” and the torque to failure (fractured femora [3]; [6]) was “significantly increased”. For the same substance, the torsional rigidity (fractured femora [3]; [6]) was “significantly increased”, the “mechanical properties of the fractured femora” value (fractured femora [3]; versus untreated group, FIG. 3) was “improved” and the “percent maximum shear stress” value (fractured femora [3]; [5]) was “trending towards significance”. For the same substance, the percent sheer modulus (fractured femora [3]; [5]) was “significantly increased”, the “percent torque to failure” value (fractured femora [3]; [5]) was “trending towards significance” and the percent torsional rigidity (fractured femora [3]; [5]) was “significantly increased”.
